Data published in ChEMBL document CHEMBL3352231, “Conformational analysis of an anti-androgenic, (E,E)-8-hydroxygermacrene B, using NOESY and dynamic NMR spectroscopy” (Bioorg Med Chem Lett, 2014).

Biological target: T1, 3-oxo-5-alpha-steroid 4-dehydrogenase 1 (Rattus norvegicus, UniProt P24008)
T1 sequence (P24008 whole entry): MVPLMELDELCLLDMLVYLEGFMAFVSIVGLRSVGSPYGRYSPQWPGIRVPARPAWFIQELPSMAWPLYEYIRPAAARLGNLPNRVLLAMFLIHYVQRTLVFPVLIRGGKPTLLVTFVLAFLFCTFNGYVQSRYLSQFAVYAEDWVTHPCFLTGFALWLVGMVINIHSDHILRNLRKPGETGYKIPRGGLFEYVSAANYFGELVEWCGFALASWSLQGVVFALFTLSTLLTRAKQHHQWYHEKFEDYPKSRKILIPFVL
Assay: Inhibition of Sprague-Dawley rat liver steroid 5-alpha-reductase assessed as inhibition of testosterone conversion to dihydrotestosterone incubated for 30 mins by HPLC method

Row | SMILES | IC50 [mM]
1 | CC(C)=C1C/C=C(/C)CC/C=C(/C)CC1=O | 1.94
2 | C#C[C@]1(O)CC[C@H]2[C@@H]3CCc4cc(O)ccc4[C@H]3CC[C@@]21C [ETHINYL ESTRADIOL] | 0.96
